In BigSolDB 2.1:

N#CCC(N)=O
solubility (mole fraction)
Conditions	283.15 K	288.15 K	293.15 K	298.15 K	303.15 K	308.15 K	313.15 K	318.15 K	323.15 K
in ethanol	0.00653	0.00898	0.0107	0.0129	0.0157	0.0188	0.0233	0.0281	0.0362
in isopropanol	0.00409	0.00548	0.00648	0.00816	0.0103	0.0135	0.0168	0.0197	0.024
in methanol	0.0186	0.0227	0.0273	0.0332	0.0401	0.048	0.0565	0.0684	0.08
in n-propanol	0.00345	0.00421	0.00565	0.0072	0.0091	0.0115	0.0146	0.0181	0.0229
in water	0.0171	0.0221	0.0304	0.039	0.0505	0.0651	0.086	0.11	0.131
